These results are taken from article PMC6749586, “Design, Synthesis, and Anticancer Effect Studies of Iridium(III) Polypyridyl Complexes against SGC-7901 Cells” (Molecules, 2019).

Some results are limits rather than exact numbers.

The subject of series [1] is SGC-7901 cells. In words: ATP quantification assay (luciferin-luciferase). The class given is cell-based, human. The settings on record: 4.0 µM 1, 15.0 µM 2, 15.0 µM 3, 24 h; control 951.46 nM. Here is the method: Approximately 2.4 × 10^6 cells were taken, evenly planted in a 6-well plate, and incubated overnight in an incubator at 37 °C. On the next day, the cells were exposed to different concentrations of compounds for 24 h in triplicate. Following exposure, 200 μL of cell lysis buffer was added to each well of the cell plate and lysed on ice. To measure ATP, 20 μL of the lysed cell suspension was added to 100 μL of a luciferin–luciferase reagent. Light emission was measured by a luminometer. ATP levels were determined using a standard curve.

The subject of another series is HeLa cells. Put plainly: MTT cytotoxicity assay, HeLa. The class given is cell-based, human. The settings on record: 48 h, read-out: IC50 toward HeLa. The source says:
(§1) The lung carcinoma cell line A549, the cervical cancer cell line HeLa, the esophageal cancer cell line Eca-109, and the human hepatocellular carcinoma cell line BEL-7402 were purchased from the cell bank of the Cell Institute of Sinica Academia Shanghai (Shanghai, China). The gastric adenocarcinoma cell line SGC-7901, the hepatocellular carcinoma cell line HepG2, and the mouse embryonic fibroblast cell line NIH 3T3 were obtained from the Experimental Animal Center of Sun Yat-Sen University (Guangzhou, China). The BEL-7402 and SGC-7901 cell lines were cultured in Roswell Park Memorial Institute Medium (RPMI-1640); and A549, Eca-109, HepG2, and NIH 3T3 cells were grown in Dulbecco’s Modified Eagle’s Medium (DMEM), including 10% fetal bovine serum (FBS), 100 units mL^−1 penicillin/streptomycin mixture, and 2.0 g/L of NaHCO3. Cell passage experiments were performed with trypsin every 2 days to maintain exponential growth. All cells were cultured until they reached logarithmic growth phase, unless specifically noted.
(§2) Cell cytotoxicity following treatment with the iridium(III) complexes was detected by MTT assay. The cells were seeded into 96-well micro-assay culture plates (1 × 10^4 cells per well) and grown overnight in a 5% CO2 incubator at 37 °C. Then, the cell lines were treated with gradient concentrations of the complexes 1–3. After treatment for 48 h, MTT solution (5 mg mL^−1, […]) dissolved in phosphate buffer was added to each well and the cells were further cultured for 4 h. Upon completion of incubation, the solvent was removed and 100 µL/well of buffer containing dimethylformamide (50%) and sodium dodecyl sulfate (20%) was added to dissolve the produced formazan. The absorbance of each well was measured with a microplate reader at a wavelength of 490 nm. The IC50 values were determined from the plots of viability versus concentration used to treat the cells. Three independent experiments were performed to obtain the mean values.

For series [2], the system named is SGC-7901 cells. In words: Cell cycle assay (PI, flow cytometry). The class given is cell-based, human. The settings on record: for Percentage in the cells, G0/G1 phase / Phase of cell cycle arrest / Percentage in the cells, G2/M phase / Percentage in the cells, S phase: 4.0 µM 1, 15.0 µM 2, 15.0 µM 3, 24 h; for Percentage in the cells, G2/M phase: control 14.92%; for Percentage in the cells, S phase: control 37.46%. Here is the method:
Then, each sample was washed twice with cold PBS, re-suspended in 190 μL of PBS buffer containing 4 μL of PI (1 mg/mL), 4 μL of RnaseA (10 mg/mL) and 0.2 μL of Tritonx-100, and stained in the dark for 30 min. Finally, the cells were analyzed by flow cytometry

In series [3] the test system is SGC-7901 cells. In words: Colony-forming assay. The class given is cell-based, human. The note with it: 4.0 µM 1, 15.0 µM 2, 15.0 µM 3, 8 days. How it is done: The SGC-7901 cells were seeded at a cell density of 500 cells per well in a 6-well plate. After 24 h, an equal amount of solvent or iridium complexes was added into the medium for another 24 h. Then, the medium containing the tested complexes was removed and replaced with fresh medium. The number of the colonies was counted on the 8th day after seeding and then fixed with paraformaldehyde for 20 min. The colonies were photographed under an inverted microscope after staining with 0.1% (w/v) crystal violet for 20 min. Each experiment was carried out in triplicate.

A further series relates to NIH 3T3 cells. Put plainly: MTT cytotoxicity assay, normal NIH 3T3. The class given is cell-based, mouse. The note with it: 48 h, read-out: IC50 toward NIH 3T3.
Description: as §1, §2

Series [4] in a line: Oil-water partition coefficient, flask-shake method. The note with it: octanol/water, pH 7.4, flask-shake, 25 °C. The class given is physicochemical. How it is done:
The pH of the cells cultured in vitro was approximately 7.4. With this in mind, we evaluated the lipophilicity of the iridium complexes by detecting the partition coefficient at pH = 7.4, using the flask-shake method. Each drug was dissolved in pre-saturated octanol at final concentrations of 0.02 and 0.03 mM. Aliquots of 5 mL of drug solution and distilled water (previously saturated with octanol) were transferred to a 25 mL flask and shaked at 25 °C for 24 h. After the shaking was completed, the solution was allowed to stand for 48 h to fully equilibrate the aqueous phase and the organic phase. The concentration of the complexes in the aqueous phase was then measured by UV-vis spectroscopy at the maximum ultraviolet absorption (262 nm for 1, 249 nm for 2, and 251 nm for 3). The evaluation of each sample was repeated three times.

The subject of series [5] is SGC-7901 cells. In words: Intracellular ROS measurement with DCFH-DA. The class given is cell-based, human. The settings on record: 4.0 µM 1, 15.0 µM 2, 15.0 µM 3, Rosup positive control, 24 h, versus control. How it is done: 2,7-Dichloro-dihydrofluorescein diacetate (DCFH-DA) was used as a fluorescence probe to investigate the changes in intracellular ROS levels. SGC-7901 cells were placed in a 12-well plate at a density of 1.5 × 10^5 per well. After 24 h, the medium in the wells was replaced with a medium containing the corresponding concentration of 1–3, and the cells were incubated for 24 h. Finally, the cell pellets were suspended in PBS and imaged under the ImageXpress Micro XLS system (MD company, US). The DCF fluorescence intensity was calculated by flow cytometry.

The test system of series [6] is SGC-7901 cells. Put plainly: Intracellular Ca2+ level with Fluo-3AM. The class given is cell-based, human. The note with it: 4.0 µM 1, 15.0 µM 2, 15.0 µM 3, 24 h; controls weak green fluorescence. Here is the method:
SGC-7901 cells in the logarithmic growth phase were seeded in 12-well microassay culture plates (1.5 × 10^5 cells per well), incubated overnight, and then treated with different concentrations of the tested complexes (4.0 µM 1, 15.0 μM 2, and 15.0 μM 3) for 24 h. The control wells were prepared by the addition of solvent (10 μL PBS buffer). The concentration of Ca^2+ was detected using the Ca^2+-sensitive fluorescent probe Fluo-3AM. Upon completion of incubation, the medium was removed and the wells were washed twice with PBS buffer, following which the cells were dyed with Fluo-3AM for 30 min. After dyeing, the cells were washed again and stained with Hoechst 33258 (10 μg mL^−1) for 30 min. The remaining dye was removed and the cells were observed under an ImageXpress Micro XLS system.

By IC50 is commonly meant the point on the concentration scale where inhibition reaches its midpoint. In the case of `F[P-](F)(F)(F)(F)F.Nc1c(N)c2cccnc2c2ncccc12.[Ir+3].[c-]1ccccc1-c1ccccn1.[c-]1ccccc1-c1ccccn1` [Complex 3, [Ir(Hppy)2(DAP)]PF6], in the series on SGC-7901 cells [1], the “Intracellular ATP amount” value amounted to 945.02 nM. The half-inhibitory concentration (IC50) in the series on HeLa cells is 59.7 ± 6.8 µM. In addition, in the series on SGC-7901 cells [2], the “Percentage in the cells, G0/G1 phase” value is 44.79%; the “Phase of cell cycle arrest” value is recorded as “inhibited cell proliferation at the S phase”; the “Percentage in the cells, G2/M phase” value was 10.50%; the “Percentage in the cells, S phase” value amounted to 44.71%. Besides, in the series with SGC-7901 cells [3], the “Inhibition of colony formation” value is on record as “significant inhibition of colony formation”. Besides, the IC50 in the series with NIH 3T3 cells was more than 100 µM. In series [4], this compound returned a logPo/w of 0.78. Besides, in the series on SGC-7901 cells [5], the “Intracellular ROS level, DCF green fluorescence (imaging)” value (shortened to “Intracellular ROS level”) is “increased green fluorescence intensity”. Also, the “Intracellular Ca2+ level, Fluo-3AM fluorescence” value (“Intracellular Ca2+ level” for short) in the series with SGC-7901 cells [6] is “brilliant green fluorescence”.
Regarding `F[P-](F)(F)(F)(F)F.Nc1c([N+](=O)[O-])c2cccnc2c2ncccc12.[Ir+3].[c-]1ccccc1-c1ccccn1.[c-]1ccccc1-c1ccccn1` [Complex 2, [Ir(Hppy)2(NAP)]PF6], the “Intracellular ATP amount” value with SGC-7901 cells [1] was 880.48 nM. Moreover, in the series on HeLa cells, the IC50 is 52.6 ± 1.4 µM. Also, in the series on SGC-7901 cells [2], the “Percentage in the cells, G0/G1 phase” value is on record as 56.65%; the “Phase of cell cycle arrest” value is “cell cycle arrest at G0/G1”; the “Percentage in the cells, G2/M phase” value is given as 5.49%; the “Percentage in the cells, S phase” value is recorded as 37.86%. For the same compound, the “Increase in the cells at the G0/G1 phase versus control” value with SGC-7901 cells [2] (15.0 µM, 24 h) turned out to be 9.03%. Further, the “Inhibition of colony formation” value in the series on SGC-7901 cells [3] is “significant inhibition of colony formation”. Also, the IC50 in the series on NIH 3T3 cells came out at 23 ± 1.5 µM. The compound also yielded a logPo/w in series [4] of 1.33. The “Intracellular ROS level” value in the series with SGC-7901 cells [5] was “increased green fluorescence intensity”. Also, in the series on SGC-7901 cells [6], the “Intracellular Ca2+ level” value is recorded as “brilliant green fluorescence”.
As for `F[P-](F)(F)(F)(F)F.O=[N+]([O-])c1cc2ccc[n+]3c2c2c1ccc[n+]2[Ir-5]312([c]3ccccc3-c3cccc[n+]31)[c]1ccccc1-c1cccc[n+]12` [Complex 1, [Ir(Hppy)2(NP)]PF6], in the series with SGC-7901 cells [1], the “Intracellular ATP amount” value was determined as 913.91 nM. Moreover, the 50% inhibitory concentration (IC50) in the series on HeLa cells worked out at 16.3 ± 0.9 µM. Moreover, in the series on SGC-7901 cells [2], the “Percentage in the cells, G0/G1 phase” value is 50.28%; the “Phase of cell cycle arrest” value is “inhibited cell proliferation at the S phase”; the “Percentage in the cells, G2/M phase” value came to 6.70%; the “Percentage in the cells, S phase” value amounted to 43.02%. The “Inhibition of colony formation” value with SGC-7901 cells [3] is “significant inhibition of colony formation”. In addition, the IC50 with NIH 3T3 cells came out at 14.6 ± 1.3 µM. For the same compound, in series [4], the logPo/w was determined as 1.01. Also, the “Intracellular ROS level” value in the series on SGC-7901 cells [5] is reported as “increased green fluorescence intensity”. For the same compound, in the series on SGC-7901 cells [6], the “Intracellular Ca2+ level” value is listed as “brilliant green fluorescence”.
